Laboratory results published in US20260092054A1, “FUSED RING COMPOUND AND PHARMACEUTICAL CONTAINING SAME” (KAKEN PHARMACEUTICAL CO., LTD., priority 2022, published 2026).

Assays:
[1] = test system: human STAT6; experiment: Human STAT6 dependent reporter activity (IL-4 stimulated STAT6 reporter assay using STAT6-HEK293 cells); type: cell-based; conditions: Homo sapiens, IL-4 stimulation, luciferase activity, read-out: Inhibition rate (%); for inhibition at 0.1 µM: compound 0.1 μmol/L; for inhibition at 1 µM: compound 1 μmol/L
[2] = target: T1, human STAT6/pIL-4Rα (Homo sapiens, UniProt P42226); experiment: Binding inhibitory activity between human STAT6/pIL-4Rα by fluorescence polarization method; conditions: rhSTAT6 (123-658) / FAM-pIL-4Rα peptide
T1 construct: histidine tag
T1 sequence (P42226 123-658): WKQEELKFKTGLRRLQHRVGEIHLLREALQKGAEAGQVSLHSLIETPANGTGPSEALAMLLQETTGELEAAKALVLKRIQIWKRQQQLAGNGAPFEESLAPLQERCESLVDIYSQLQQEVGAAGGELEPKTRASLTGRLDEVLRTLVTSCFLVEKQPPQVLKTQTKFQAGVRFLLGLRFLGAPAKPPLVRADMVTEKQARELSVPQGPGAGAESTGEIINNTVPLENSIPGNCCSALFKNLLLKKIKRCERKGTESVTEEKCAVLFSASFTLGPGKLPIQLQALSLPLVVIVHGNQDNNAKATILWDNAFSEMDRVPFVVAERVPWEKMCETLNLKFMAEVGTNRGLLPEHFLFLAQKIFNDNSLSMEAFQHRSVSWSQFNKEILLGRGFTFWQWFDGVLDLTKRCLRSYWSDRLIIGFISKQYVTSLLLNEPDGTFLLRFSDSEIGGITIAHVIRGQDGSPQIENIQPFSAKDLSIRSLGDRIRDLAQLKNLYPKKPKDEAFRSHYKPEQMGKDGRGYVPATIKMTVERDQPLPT
Procedure, shortened: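 His-tagged human STAT6 (residues 123–658, E. coli-expressed) was preincubated with compound for 30 min at RT in the dark, in buffer e.g. 50 mM NaCl, 10 mM HEPES pH 7.0, 1 mM DTT, 1 mM EDTA, 0.01% NP-40. FAM-pIL-4Rα peptide was then added for 30 min. Fluorescence polarisation was read at 485/535 nm, with IC50 interpolated linearly between two points flanking 50%.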

| Compound | inhibition at 0.1 µM [1] | inhibition at 1 µM [1] | IC50 [2] |
| --- | --- | --- | --- |
| CCn1c(-c2ccc(-n3c(C)nn(C)c3=O)cc2)cc2cc(C(F)(F)F)cc(C(=O)Nc3cccc(C(N)=O)c3F)c21 [Ex. 15] | 97% | 100% | 250 nM |
| Cc1nn(C)c(=O)n1-c1ccc(-c2cc3cccc(C(=O)Nc4cccc(C(N)=O)c4F)c3n2CC2CC2)cc1 [Ex. 119] | 95% | – | 380 nM |
| CCn1c(-c2ccc(-n3nccn3)cc2)nc2cc(Br)cc(C(=O)Nc3cccc(C(N)=O)c3)c21 [Ex. 6] | -1% | 52% | 1140 nM |
| CCn1c(-c2ccc(-n3c(C)nn(C)c3=O)nc2)cc2cc(C(F)(F)F)cc(C(=O)Nc3ccc(F)c(C(N)=O)c3)c21 [Ex. 20] | 50% | 98% | 660 nM |
| CCn1c(-c2ccc(-n3cnn(C)c3=O)cc2)nc2cc(C(F)(F)F)cc(C(=O)Nc3cccc(C(N)=O)c3F)c21 [Ex. 1] | 22% | 93% | 390 nM |
